Counter-ions that a name gives are not always drawn.
Key:
Aβ peptide = test: in vitro circular dichroism (CD) assay of β-sheet secondary structure formation; details: Aβ peptide with test compound in Tris-HCl buffer pH 7, incubated 0 or 24 hours at 37° C., CD at 25° C.
Text: It is known that amyloidogenic peptides or proteins which have formed amyloid deposits or plaques have a significant amount of β-sheet secondary structure, while the unaggregated peptide or protein generally has less β-sheet structure. It is believed that the ability of a candidate therapeutic compound to prevent the formation of β-sheet secondary structure in vitro may be correlated with the ability of the compound to inhibit amyloidogenesis in vivo. Accordingly, phosphonate compounds were assayed for ability to prevent the formation of β-sheet secondary structure in an in vitro circular dichroism (CD) assay.
Aβ is a 40 amino acid protein associated with Alzheimer's disease. Aβ peptide was prepared and purified as described in Fraser, P. E. et al., Biochemistry 31, 10716 (1992). Briefly, the peptide was synthesized by standard solid-phase techniques and purified by HPLC according to well known procedures.
All CD experiments were performed on a commercially available instrument. The cell was maintained at 25° C. using a circulating water bath. Computer-averaging of traces was performed to improve signal-to-noise ratios. The solvent signal was subtracted. CD experiments were performed for each test compound according to the following procedure:
A stock solution of purified peptide was made by dissolving the peptide in phosphate-buffered saline (PBS) to a concentration of 2 mg/ml. […]

amyloid peptide = amyloid peptide solubility assay (overnight incubation, centrifugation, soluble peptide determination); details: compound and amyloid peptide incubated together overnight, then centrifugation; preliminary result
[1] = test system: cortical/hippocampal neuronal cultures; test: neurotoxicity in cortical/hippocampal neuronal cultures; assay type: cell-based; details: concentrations ranging from 10^-7 M to 10^-4 M

Row | SMILES | β-sheet formation (minimum at 218 nm in CD spectrum versus control) (Aβ peptide) | effect on amyloid peptide solubility (amount of soluble peptide) (amyloid peptide) | neurotoxicity [1]
1 | O=C(O)CCOCCP(=O)(O)O [2-carboxyethoxyethylphosphonic acid] | did not appear to prevent β-pleated sheet formation |  | 
2 | O=C(O)P(=O)(O)O [Phosphonoformate sodium salt, Trisodium phosphonoformate] | significantly and reproducibly reduce the amount of β-sheet formation | little effect on amyloid peptide solubility | no significant toxicity
